Measurements: paper PMC3202988 (Nature chemical biology, 2011)

Biological target: T1, OGA (O-GlcNAcase) (Homo sapiens, UniProt O60502)
T1 sequence (O60502 1-916): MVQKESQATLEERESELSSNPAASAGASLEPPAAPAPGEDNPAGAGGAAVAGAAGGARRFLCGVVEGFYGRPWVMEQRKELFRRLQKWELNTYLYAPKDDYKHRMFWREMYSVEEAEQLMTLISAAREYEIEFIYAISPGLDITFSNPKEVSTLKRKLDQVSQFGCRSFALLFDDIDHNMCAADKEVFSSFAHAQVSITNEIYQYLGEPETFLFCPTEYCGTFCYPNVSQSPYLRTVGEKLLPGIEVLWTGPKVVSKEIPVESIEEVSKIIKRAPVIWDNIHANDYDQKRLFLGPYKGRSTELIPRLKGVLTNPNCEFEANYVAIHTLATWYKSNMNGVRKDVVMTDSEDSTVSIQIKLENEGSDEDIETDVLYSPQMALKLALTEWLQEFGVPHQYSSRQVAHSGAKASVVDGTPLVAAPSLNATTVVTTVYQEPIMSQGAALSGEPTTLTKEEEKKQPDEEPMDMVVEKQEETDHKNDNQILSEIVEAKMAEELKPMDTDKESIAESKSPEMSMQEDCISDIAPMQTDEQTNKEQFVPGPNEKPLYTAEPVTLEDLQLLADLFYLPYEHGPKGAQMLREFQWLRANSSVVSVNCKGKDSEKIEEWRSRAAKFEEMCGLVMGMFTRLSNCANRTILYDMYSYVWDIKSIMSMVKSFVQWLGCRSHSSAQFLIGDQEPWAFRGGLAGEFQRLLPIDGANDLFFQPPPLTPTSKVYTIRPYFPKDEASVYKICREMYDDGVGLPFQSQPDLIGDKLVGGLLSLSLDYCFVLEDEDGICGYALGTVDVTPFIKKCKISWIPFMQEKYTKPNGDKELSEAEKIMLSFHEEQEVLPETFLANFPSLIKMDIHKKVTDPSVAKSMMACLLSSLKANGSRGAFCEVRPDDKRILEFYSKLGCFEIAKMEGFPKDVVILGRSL
Assay: Michaelis-Menten hydrolysis kinetics, absorbance at […] nm
Format: biochemical

COc1ccc(O[C@@H]2O[C@H](CO)[C@@H](O)[C@H](O)[C@H]2NC(C)=O)cc1 [compound 6, para-methoxyphenyl 2-acetamido-2-deoxy-β-D-glucopyranoside]
Michaelis-Menten hydrolysis kinetics, absorbance at 296 nm: 40.7 μmol s^−1 mg^−1 M^−1

COc1ccc(O[C@@H]2S[C@H](CO)[C@@H](O)[C@H](O)[C@H]2NC(C)=O)cc1 [compound 7, para-methoxyphenyl 2-acetamido-2-deoxy-5-thio-β-D-glucopyranoside]
Michaelis-Menten hydrolysis kinetics, absorbance at 296 nm: 8.1 μmol s^−1 mg^−1 M^−1
